Assay results published in patent publication US20030045679A1, “Calcineurin modulators” (priority 2001, published 2003).
Like-named read-outs stand apart in the source and are kept apart here.

Columns and labels:
HA-1 cells [1] = conditions: 160 μM hydrogen peroxide; cited from earlier work
HA-1 cells [2] = assay: Cytotoxicity of A23187 and hydrogen peroxide on stable transfectants, propidium iodide uptake by flow cytometry; conditions: n = 4
Procedure: (§1) MATERIAL AND METHODS: Cell culture and treatment conditions. Chinese hamster HA-1 fibroblasts were maintained in Eagle's minimal essential medium supplemented with 8% heat inactivated fetal bovine serum, penicillin (100 units/ml) and streptomycin (100μg/ml). Cultures were grown in a humidified incubator atmosphere of 95% air and 5% CO2 at 37 °C.
(§2) Stress analyses. Control cells and lines 7, 10, and 15 were grown to log phase and equal confluency (75%). At this time, the cells were exposed to each stress agent and cytotoxicity measured. For the oxidative stress studies, a stock solution of hydrogen peroxide (30% w/w) was diluted in phosphate-buffered saline just prior to cell exposure. At the time of treatment, the HA-1 cultures were taken from the incubator and freshly diluted-peroxide added to the culture dishes. The cells were then returned to the incubator for the appropriate times.
(§3) Stable adapt78-overexpressing, vector control and non-transfected control HA-1 cells were exposed to 4 μg/ml calcium ionophore A23187 or […] for 60 minutes (A23187) or 90 minutes (hydrogen peroxide). Cytotoxicity was then determined by propidium iodide uptake using flow cytometry as follows. After treatment, monolayers were rinsed with PBS containing 3 mM EDTA, then covered with the same for 5 minutes at room temperature before suspending cells by gentle trituration. Cytotoxicity was then measured using propidium iodide and the stained cells analyzed by flow cytometry using a Becton Dickinson FAC Scan. The ModFit analytical software program was used to quantify the percentage of cytotoxicity.
(§4) Control cells and lines 7, 10, and 15 were grown to log phase and equal confluency (75%), then treated with 4 μg/ml A23187 and separately, 5 mM hydrogen peroxide. Cytotoxicity was then assessed by propidium iodide uptake using flow cytometry. Fold protection was calculated as the percent viability of cells compared with untransfected after subtracting out background (cells treated with solvent only). The average of untransfected percent viability was arbitrarily set at 1.0.

HA-1 cells [3] = conditions: stained 7 days later, cited from earlier work
[4] = Cytotoxicity of A23187 and hydrogen peroxide on stable transfectants, propidium iodide uptake by flow cytometry; conditions: Chinese hamster, Percent cytotoxicity, 4 μg/ml A23187
Procedure: as §1, §2, §3, §4

Row | SMILES | cytotoxicity using trypan blue exclusion (HA-1 cells [1]) | Fold protection +/− 1 S.D. (HA-1 cells [2]; 5 mM hydrogen peroxide, Clone 10 vs Untransfected) | Fold protection +/− 1 S.D. (HA-1 cells [2]; 5 mM hydrogen peroxide, Clone 15 vs Untransfected) | Fold protection +/− 1 S.D. (HA-1 cells [2]; 5 mM hydrogen peroxide, Untransfected HA-1 cells (set at 1.0)) | Fold protection +/− 1 S.D. (HA-1 cells [2]; 5 mM hydrogen peroxide, Vector transfected HA-1 cells vs Untransfected) | decrease in colony number compared with control (HA-1 cells [3]; 160 μM hydrogen peroxide for 5 hours) [%] | decrease in colony number compared with control (HA-1 cells [3]; 400 μM hydrogen peroxide for 5 hours) [%] | Fold protection +/− 1 S.D. (HA-1 cells [2]; 4 μg/ml A23187, Clone 7 vs Untransfected) | Fold protection +/− 1 S.D. (HA-1 cells [2]; 4 μg/ml A23187, Clone 10 vs Untransfected) | Fold protection +/− 1 S.D. (HA-1 cells [2]; 4 μg/ml A23187, Clone 15 vs Untransfected) | Fold protection +/− 1 S.D. (HA-1 cells [2]; 4 μg/ml A23187, Untransfected HA-1 cells (set at 1.0)) | Fold protection +/− 1 S.D. (HA-1 cells [2]; 4 μg/ml A23187, Vector transfected HA-1 cells vs Untransfected) | cytotoxicity at 60 min, 4 μg/ml ([4]; Untransfected HA-1 cells) [%] | cytotoxicity at 60 min, 4 μg/ml ([4]; Vector transfected HA-1 cells) [%] | cytotoxicity at 60 min, 4 μg/ml ([4]; adapt78 overexpressing Clone 7) [%] | cytotoxicity at 60 min, 4 μg/ml ([4]; adapt78 overexpressing Clone 10) [%] | cytotoxicity at 60 min, 4 μg/ml ([4]; adapt78 overexpressing Clone 15) [%]
1 | OO [Peroxide, hydrogen peroxide] | no associated cytotoxicity was observed | 3.7 +/− 0.6 fold | 4.2 +/− 0.6 fold | 1.0 +/− 0.3 fold | 1.0 +/− 0.4 fold | 79.5 | 97.8 |  |  |  |  |  |  |  |  |  | 
2 | CNc1ccc2oc(C[C@H]3O[C@@]4(CC[C@H]3C)O[C@H]([C@H](C)C(=O)c3ccc[nH]3)[C@H](C)C[C@H]4C)nc2c1C(=O)O [A23187] |  |  |  |  |  |  |  | 4.8 +/− 0.5 fold | 4.1 +/− 1.0 fold | 4.1 +/− 0.3 fold | 1.0 +/− 0.4 fold | 1.1 +/− 0.3 fold | 48.2 | 44 | 10.1 | 11.7 | 11.8
